Data reported in patent publication US20260137662A1, “CD11B AGONISTS FOR TREATMENT OF AUTOIMMUNE DISEASE” (Rush University Medical Center, priority 2022, published 2026).
Entries after “also recorded” stand apart in the source; their conditions may differ.

Key:
TLR signaling pathways = test: Relative gene expression in RAW cells treated with Poly(I:C); assay type: cell-based, murine; details: Poly(I:C) (0.1 ug/mL) and LA1 (20 uM) co-treatment, 4 hours
Experimental: FIG. 2C illustrates relative gene expression of biomarker uPAR in RAW cells after 4 hours of treatment with Poly(I:C) (0.1 ug/mL), LA1 (20 uM), and Poly(I:C) […] LA1 co-treatment.
FIG. 2D illustrates relative gene expression biomarker IL-1b in RAW cells after 4 hours of treatment with Poly(I:C) (0.1 ug/mL), LA1 (20 uM), or Poly(I:C) and LA1 co-treatment.
The effect of LA1 on TLR-stimulation dependent pro-inflammatory pathways was studied by stimulating myeloid cells with different TLR-stimulants (lipopolysaccharide (LPS), Pam2CSK 4, imiquimod (IMQ)) or with phorbol 12-myristate 13-acetate (PMA) and co-treating with LA1. The levels of suPAR (pg/mL) and TNFa (pg/mL) in cell supernatant were measured 4 hours after treatment using ELISA. […] Relative gene expression was also assessed in myeloid cells treated with Poly(I:C), a known toll-like receptor (TLR) agonist, and co-treated with LA1.

TLR4 mediated pathways = test: Relative gene expression in myeloid cells stimulated with LPS; assay type: cell-based; details: LPS (50ng/ml) and LA1 (20 uM) co-treatment, 4 hour
Experimental: FIG. 4A illustrates the relative gene expression of biomarker IL-1bin myeloid cells after 4 hour of treatment with vehicle DMSO (UT), LA1 (20 uM), LPS (50ng/ml), or LPS and LA1 co-treatment.
FIG. 4B illustrates the relative gene expression of biomarker IL-18 in myeloid cells after 4 hour of treatment with vehicle DMSO (UT), LA1 (20 uM), LPS (50ng/ml), or LPS and LA1 co-treatment.
FIG. 4C illustrates the relative gene expression of biomarker uPAR in myeloid cells after 4 hour of treatment with vehicle DMSO (UT), LA1 (20 uM), LPS (50ng/ml), or LPS and LA1 co-treatment.
FIG. 4D illustrates the relative gene expression of biomarker IL-6 in myeloid cells after 4 hour of treatment with vehicle DMSO (UT), LA1 (20 uM), LPS (50ng/ml), or LPS and LA1 co-treatment.
The impact of CD11b activation by LA1 on TLR4 mediated pathways was similarly assessed by stimulating myeloid cells with LPS, a known TLR4 stimulant, and co-treating with LA1.

[1] = test system: humanized mouse model of SLE (SLE-NSG mice); test: Humanized SLE mouse model (NSG mice engrafted with SLE patient PBMCs); assay type: in vivo
Experimental: NSG mice engrafted with healthy control or SLE PBMCs were subsequently treated with LA1 or vehicle and human dsDNA levels were measured after 4 weeks of treatment. Each dot represents a unique sample. Bars show mean +/−SEM (n=3-6).
NSG mice engrafted with healthy control or SLE PBMCs were subsequently treated with LA1 or vehicle and suPAR levels were measured after 4 weeks of treatment. Each dot represents a unique sample. Bars show mean +/−SEM (n=3-6). […]
NSG mice engrafted with healthy control or SLE PBMCs were subsequently treated with LA1 or vehicle and ACR was measured after 4 weeks of treatment. Each dot represents a unique sample. Bars show mean +/−SEM (n=3-6).
FIG. 14A illustrates alopecia in control mouse models (Ctrl), mice engrafted with heathy PBMCs (HC), humanized SLE models treated with vehicle (Veh), and humanized SLE models treated with LA1. […]
The efficacy of CD11b agonist LA1 as a therapeutic was studied using a generated humanized mouse model of SLE. To generate the humanized SLE model, immunocompromised NSG mice engrafted with peripheral blood mononuclear cells (PBMCs) from either SLE patients or from healthy human donors (control). 2.5×10^6 purified PBMCs were injected intravenously into NSG mice on day 0. The humanized mice were monitored daily for significant clinical signs of SLE (alopecia, skin lesions, weight loss & arthritis), morbidity and mortality. Body weights were recorded weekly and skin lesions were photographed and scored weekly.
A small sample of peripheral blood was drawn from the mice under general anesthesia 2, 4 and 6 wks post-humanization by penetrating the retro-orbital sinus in mice with a sterile Pasteur pipette. The blood sample was split for fluorescence-activated cell sorting (FACS) analysis and serum preparation. […] For serum, the whole blood was clotted at room temperature for 30 minutes, followed by a 10-minute centrifugation at 10,000 RPM. The red blood cell-free serum was transferred into micro-centrifuge tubes and stored at −80° C. until further analysis. Additionally, urine samples were collected weekly, transferred into a micro-centrifuge tube and stored at −80° for future analysis. Urine protein was measured using a sandwich ELISA specific for mouse albumin (Bethyl Laboratories, TX) and urinary creatinine was determined using the Creatinine Companion kit (Exocell, PA) according to manufacturer's protocol.
To test the efficacy of LA1 on humanized SLE mouse models, the generated SLE-NSG mice were treated with LA1 (2 mg/kg i.p. daily) starting at two weeks post administration of PBMCs and until experiment completion. Concentrations of human dsDNA, mouse suPAR, and IFNb were measured in NSG mice, NSG mice engrafted with PBMCs from a healthy donor, untreated SLE-NSG mice, SLE-NSG mice treated with a vehicle, and SLE-NSG mice treated with LA1.

[2] = LA1 2 mg/kg i.p. daily from two weeks post PBMCs, after 4 weeks of treatment, vs vehicle, 2 mg/kg
[3] = humanized SLE mice treated with LA1 vs vehicle

O=C(O)c1ccc(-c2ccc(/C=C3\SC(=S)N(Cc4ccccc4)C3=O)o2)cc1 [LA1, (Z)-4-(5-((3-benzyl-4-oxo-2-thioxothiazolidin-5-ylidene)methyl)furan-2-yl)benzoic acid]
relative gene expression of biomarker IL-1b (TLR signaling pathways): significantly reduced
relative gene expression of biomarker uPAR (TLR signaling pathways): significantly reduced
expression of biomarker IL-1b (TLR4 mediated pathways): significantly decreased
expression of biomarker IL-6 (TLR4 mediated pathways): significantly decreased
expression of biomarker IL-18 (TLR4 mediated pathways): significantly decreased
expression of biomarker uPAR (TLR4 mediated pathways): significantly decreased
concentration of IFNb in the serum [1, 2]: significantly reduced; also recorded: reduction
concentration of anti-double stranded DNA antibodies (human dsDNA) in the serum [1, 2]: significantly reduced; also recorded: reduction
concentration of suPAR in the serum [1, 2]: significantly reduced; also recorded: reduction
urinary albumin creatinine ratios (ACR) [1, 2]: significantly reduced; also recorded: reduction
alopecia (nose area) [1, 3]: significantly reduced; also recorded: reduces alopecia
number of GR1-positive, CD11b-positive cells in spleens [1, 3]: reduction in number
number of neutrophils infiltrating in the kidney (H&E staining) [1, 3]: reduction in number
